“And” between values parts separate entries of the source, which are not always exact repeats. Equal entries are not always repeated.
System: WP2-uvrA
Experiment: Ames Bacterial Reverse Mutation Assay
Conditions: for Background Lawn Code / Colony Counts Average / Colony Counts Replicate 1-3: WP2-uvrA
Description: The Ames Bacterial Reverse Mutation (AB™) used five bacterial tester strains (TA97a, TA98, TA100, TA1535, WP2-uvrA).
Tester strains were added to flasks containing nutrient broth and incubated at 37+2° C. overnight. The flasks were removed from the overnight incubation and the final concentration was determined (the OD was measured and determined whether growth was suitable for testing). Top agar was melted, and 2.0 mL was dispensed into heated culture tubes. The S9 mix (metabolic activation) was prepared and stored on ice. […] Each culture tube was vortexed and immediately poured onto the labeled minimal glucose agar plates. All plates were inverted and placed into a 37±1° C. incubator for 48-72 hours. The plates were counted via an automated colony counter or by hand and the background lawn was microscopically evaluated for any signs of toxicity. Genotypic control plates were prepared for each tester strain and incubated for 24-72 hours at 37±1° C.

CCC1(O)C(=O)OCc2c1cc1n(c2=O)Cc2cc3cc4c(cc3nc2-1)OCO4 (centres unmarked) [FL118]
bacterial strain mutation: does not induce | mean revertant colonies over negative control (+/− S9): less than 2 fold | Background Lawn Code (0.010 μM +S9): 1 | Colony Counts Average (0.010 μM +S9): 40 | Colony Counts Replicate 1-3 (0.010 μM +S9): 38 and 47 and 34 | Background Lawn Code (0.010 μM −S9): 1 | Colony Counts Average (0.010 μM −S9): 29 | Colony Counts Replicate 1-3 (0.010 μM −S9): 35 and 22 and 31 | Background Lawn Code (0.10 μM +S9): 1 | Colony Counts Average (0.10 μM +S9): 47 | Colony Counts Replicate 1-3 (0.10 μM +S9): 48 and 38 and 54 | Background Lawn Code (0.10 μM −S9): 1 | Colony Counts Average (0.10 μM −S9): 30 | Colony Counts Replicate 1-3 (0.10 μM −S9): 27 (2×) and 36 | Background Lawn Code (1.0 μM +S9): 1 | Colony Counts Average (1.0 μM +S9): 39 | Colony Counts Replicate 1-3 (1.0 μM +S9): 35 and 38 and 43 | Background Lawn Code (1.0 μM −S9): 1 | Colony Counts Average (1.0 μM −S9): 27 | Colony Counts Replicate 1-3 (1.0 μM −S9): 27 and 31 and 24

— US20250312469A1 (CANGET BIOTEKPHARMA, priority 2024, published 2025)
